Experiments:
[1] = target: T1, integrin α4β1 (Homo sapiens, UniProt P05556+P13612); assay: Assessment of VCAM-1/α4β1 binding antagonist activity (Jurkat cells binding to VCAM-1); type: cell-based; conditions: Jurkat human T cells binding to recombinant human VCAM-1; read-out: integrin VCAM/α4 binding antagonistic activity (IC50) α4β1
T1 construct: cell strain Jurkat (ATCC TIB-152) of human T cells, known to express integrin α4β1; endogenous in cells; host or cells: Jurkat (ATCC TIB-152), human T cells
Protocol: The capacity of a test substance antagonistic to the binding of cell strain Jurkat (ATCC TIB-152) of human T cells, known to express integrin α4β1, to VCAM-1 was determined.
(§1) 100 μl/well of a solution (500 ng/ml) of recombinant human VCAM-1 (R & D systems) solution diluted with buffer A (0.1 M NaHCO3, pH 9.6) was added to a micro titer plate having 96 wells (Nunc Maxisorp). After the incubation at 4° C. overnight, unbound VCAM-1 was removed by washing once with PBS. After completion of the washing, a buffer (buffer B) obtained by diluting Block Ace (Dainippon Pharmaceutical Co., Ltd.) with PBS to 1/4 concentration was added in an amount of 150 μl/well. After the incubation at room temperature for 1 hour, buffer B was removed and the plate was washed with PBS once.
Jurkat cells were washed with Dulbecco modified Eagle medium (SIGMA, hereinafter referred to as “DMEM”) twice and then incubated in DMEM containing 10 μg/ml of Calcein-AM (Wako Pure Chemical Industries, Ltd.) at 37° C. in dark place for 30 minutes to label with fluorescence. The cells were again suspended in a binding buffer (20 mM HEPES, DMEM containing 0.1% BSA).
(§2) 50 μl of a test substance of various concentrations obtained by the dilution with the binding buffer was added to the plate. Immediately thereafter, 50 μl (final volume: 100 μl/well) of the fluorescent Jurkat cells (4×10^6 cells/ml) were added thereto, and they were incubated in dark place at room temperature for 30 minutes. After the shaking on a plate shaker (IKA MTS-4) at 800 rpm for 30 seconds, the solution was immediately removed to remove the unbound cells. The fluorescence quantity of the bound cells remaining in the wells was determined with a fluorescent plate reader (Wallac 1420 ARVO multi-label counter) (filter excitation wave length: 485 nm, emission wave length: 535 nm). The fluorescent strength thus obtained is proportional to the number of Jurkat cells bound to VCAM-1 and remaining on the plate. The binding rate of each test material in various concentrations was determined while the fluorescent strength of the test material-free well was determined to be 100%.

[2] = target: T2, integrin α4β7 (Homo sapiens, UniProt P13612+P26010); assay: Assessment of VCAM-1/α4β7 binding antagonistic activity (RPMI-8866 cells binding to VCAM-1); type: cell-based; conditions: RPMI-8866 human B lymphoma cells binding to recombinant human VCAM-1, binding buffer with 4 mM MnCl2; read-out: integrin VCAM/α4 binding antagonistic activity (IC50) α4β7
T2 construct: lymphoma cell strain RPMI-8866 of human B cells, known to express integrin α4β7; endogenous in cells; host or cells: RPMI-8866, human B-cell lymphoma line
T2 sequence (P13612 34-1032): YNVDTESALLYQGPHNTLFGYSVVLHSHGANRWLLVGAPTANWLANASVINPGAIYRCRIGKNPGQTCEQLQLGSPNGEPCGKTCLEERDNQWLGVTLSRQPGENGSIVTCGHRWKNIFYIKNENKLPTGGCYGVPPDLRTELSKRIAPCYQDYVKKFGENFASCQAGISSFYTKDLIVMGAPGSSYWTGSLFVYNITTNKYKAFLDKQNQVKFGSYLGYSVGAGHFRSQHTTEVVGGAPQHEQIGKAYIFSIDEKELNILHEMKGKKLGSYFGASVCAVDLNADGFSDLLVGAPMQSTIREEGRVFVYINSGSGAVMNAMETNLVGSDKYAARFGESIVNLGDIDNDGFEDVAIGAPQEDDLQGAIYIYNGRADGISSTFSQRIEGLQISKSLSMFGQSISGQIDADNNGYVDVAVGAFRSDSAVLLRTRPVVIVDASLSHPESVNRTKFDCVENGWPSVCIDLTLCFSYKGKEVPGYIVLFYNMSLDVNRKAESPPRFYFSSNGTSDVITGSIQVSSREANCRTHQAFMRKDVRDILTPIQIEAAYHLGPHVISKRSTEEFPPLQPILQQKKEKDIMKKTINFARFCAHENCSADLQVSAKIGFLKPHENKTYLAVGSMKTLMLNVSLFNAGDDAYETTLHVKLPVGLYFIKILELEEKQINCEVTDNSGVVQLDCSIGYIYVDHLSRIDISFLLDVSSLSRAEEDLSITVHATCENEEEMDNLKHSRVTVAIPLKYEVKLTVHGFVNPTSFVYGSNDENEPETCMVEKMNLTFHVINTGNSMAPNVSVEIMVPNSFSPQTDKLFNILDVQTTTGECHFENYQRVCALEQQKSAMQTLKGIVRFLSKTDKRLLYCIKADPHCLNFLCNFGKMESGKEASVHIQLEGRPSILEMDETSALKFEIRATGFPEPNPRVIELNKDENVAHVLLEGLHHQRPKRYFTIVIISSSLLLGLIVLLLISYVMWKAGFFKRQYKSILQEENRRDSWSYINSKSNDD
T2 sequence (P26010 20-798): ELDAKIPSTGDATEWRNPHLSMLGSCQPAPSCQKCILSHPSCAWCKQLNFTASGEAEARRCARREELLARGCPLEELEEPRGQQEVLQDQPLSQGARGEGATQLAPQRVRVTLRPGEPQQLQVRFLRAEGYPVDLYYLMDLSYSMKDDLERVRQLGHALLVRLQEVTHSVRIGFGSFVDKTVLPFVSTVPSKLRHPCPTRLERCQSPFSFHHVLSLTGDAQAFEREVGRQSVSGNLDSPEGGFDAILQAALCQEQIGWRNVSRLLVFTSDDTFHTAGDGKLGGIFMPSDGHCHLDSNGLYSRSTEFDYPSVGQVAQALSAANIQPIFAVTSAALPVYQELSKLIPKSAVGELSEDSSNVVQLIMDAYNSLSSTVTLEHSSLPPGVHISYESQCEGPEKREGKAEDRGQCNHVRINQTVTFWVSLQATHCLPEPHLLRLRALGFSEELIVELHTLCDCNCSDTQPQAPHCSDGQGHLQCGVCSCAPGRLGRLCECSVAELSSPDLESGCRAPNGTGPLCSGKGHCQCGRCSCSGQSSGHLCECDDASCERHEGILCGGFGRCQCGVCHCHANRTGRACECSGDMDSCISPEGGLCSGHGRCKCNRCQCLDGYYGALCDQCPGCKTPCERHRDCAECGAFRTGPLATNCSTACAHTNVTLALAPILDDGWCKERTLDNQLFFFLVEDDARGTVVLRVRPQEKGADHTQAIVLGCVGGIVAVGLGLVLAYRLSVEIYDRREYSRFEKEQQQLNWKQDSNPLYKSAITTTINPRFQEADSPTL
Protocol: The capacity of a test substance antagonistic to the binding of lymphoma cell strain RPMI-8866 of human B cells, known to express integrin α4β7, to VCAM-1 was determined.
as §1
RPMI-8866 cells were washed with DMEM twice and incubated in Dulbecco modified Eagle medium containing 10 μg/ml of Calcein-AM (Wako Pure Chemical Industries, Ltd.) (SIGMA, hereinafter referred to as “DMEM”) in dark place at 37° C. for 30 minutes to label with fluorescence. The cells were again suspended in a binding buffer (20 mM HEPES, DMEM containing 0.1% BSA) containing 4 mM of MnCl2.
as §2, with “RPMI-8866” for “Jurkat”

T1 sequence (P05556 21-798, one chain of several): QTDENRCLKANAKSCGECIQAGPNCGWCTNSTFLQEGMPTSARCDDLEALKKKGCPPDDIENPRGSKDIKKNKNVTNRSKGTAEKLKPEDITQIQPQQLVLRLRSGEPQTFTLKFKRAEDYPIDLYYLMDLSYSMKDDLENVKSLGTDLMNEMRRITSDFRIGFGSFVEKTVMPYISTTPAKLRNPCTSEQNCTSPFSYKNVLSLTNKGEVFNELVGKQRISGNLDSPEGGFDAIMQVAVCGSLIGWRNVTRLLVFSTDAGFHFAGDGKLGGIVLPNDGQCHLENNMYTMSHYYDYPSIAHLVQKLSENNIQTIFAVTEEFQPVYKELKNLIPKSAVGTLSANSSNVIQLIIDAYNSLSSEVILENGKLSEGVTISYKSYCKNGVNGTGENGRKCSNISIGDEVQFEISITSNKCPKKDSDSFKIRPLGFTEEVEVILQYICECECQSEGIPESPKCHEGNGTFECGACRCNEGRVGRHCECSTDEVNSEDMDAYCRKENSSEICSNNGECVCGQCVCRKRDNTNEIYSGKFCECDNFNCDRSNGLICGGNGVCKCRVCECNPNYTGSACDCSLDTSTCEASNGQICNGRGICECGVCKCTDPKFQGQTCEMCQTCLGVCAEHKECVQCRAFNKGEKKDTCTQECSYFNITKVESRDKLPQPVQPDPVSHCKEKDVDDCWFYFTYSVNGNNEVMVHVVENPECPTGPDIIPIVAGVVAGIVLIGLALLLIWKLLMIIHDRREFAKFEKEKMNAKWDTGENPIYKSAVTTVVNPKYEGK

| Compound | IC50 [1] | IC50 [2] |
| --- | --- | --- |
| O=C(N[C@@H](Cc1ccc(-n2c(=O)c3ccccc3n(Cc3c(F)cccc3F)c2=O)cc1)C(=O)O)c1c(Cl)cccc1Cl [Example 4] | 26 nM | 2.8 nM |
| N#CCn1c(=O)n(-c2ccc(C[C@H](NC(=O)c3c(Cl)cccc3Cl)C(=O)O)cc2)c(=O)c2ccccc21 [Example 6] | 80 nM | 3.3 nM |
| COc1ccc2nnn(-c3ccc(C[C@H](NC(=O)c4c(Cl)cccc4Cl)C(=O)O)cc3)c(=O)c2c1 [Reference Example 84] | 158 nM | 20 nM |
| CN(C)c1ccc2c(c1)c(=O)n(-c1ccc(C[C@H](NC(=O)c3c(Cl)cccc3Cl)C(=O)O)cc1)c(=O)n2C [Reference Example 108] | 57 nM | 3.3 nM |
| Cn1c(=O)n(-c2ccc(C[C@H](NC(=O)c3c(Cl)cccc3Cl)C(=O)O)cc2)c(=O)c2cc([N+](C)(C)C)ccc21 [Reference Example 112] | 37 nM | 1.1 nM |
| O=C(N[C@@H](Cc1ccc(-n2c(=O)c3ccccc3n(Cc3c(Cl)cccc3Cl)c2=O)cc1)C(=O)O)c1c(Cl)cccc1Cl [Reference Example 114] | 190 nM | 27 nM |
| Cc1cccc(Cl)c1C(=O)N[C@@H](Cc1ccc(-n2c(=O)c3ccccc3n(C)c2=O)cc1)C(=O)O [Reference Example 162] | 34 nM | 0.2 nM |
| Cn1c(=O)n(-c2ccc(C[C@H](NC(=O)c3c(Cl)cccc3Cl)C(=O)NO)cc2)c(=O)c2ccccc21 [Reference Example 211] | 250 nM | 20 nM |
| CCC(C)n1c(=O)n(-c2ccc(C[C@H](NC(=O)c3c(Cl)cccc3Cl)C(=O)O)cc2)c(=O)c2cc([N+](=O)[O-])ccc21 (stereo partly drawn) [compound 58] | 1070 nM | 31.6 nM |
| O=C(N[C@@H](Cc1ccc(-n2c(=O)[nH]c3c(Cl)ccc(Cl)c3c2=O)cc1)C(=O)O)c1c(Cl)cccc1Cl [compound 76] | 192 nM | 13 nM |
| O=C(N[C@@H](Cc1ccc(-n2c(=O)[nH]c3cc(F)ccc3c2=O)cc1)C(=O)O)c1c(Cl)cccc1Cl [compound 78] | 180 nM | 9.6 nM |
| O=C(N[C@@H](Cc1ccc(-n2c(=O)[nH]c3ncccc3c2=O)cc1)C(=O)O)c1c(Cl)cccc1Cl [compound 79] | 440 nM | 18 nM |
| O=C(N[C@@H](Cc1ccc(-n2nnc3ccc(F)cc3c2=O)cc1)C(=O)O)c1c(Cl)cccc1Cl [compound 85] | 230 nM | 25 nM |
| Cc1cccc2nnn(-c3ccc(C[C@H](NC(=O)c4c(Cl)cccc4Cl)C(=O)O)cc3)c(=O)c12 [compound 89] | 41 nM | 2.7 nM |
| CCOc1nc2ccc(F)cc2c(=O)n1-c1ccc(C[C@H](NC(=O)c2c(Cl)cccc2Cl)C(=O)O)cc1 [compound 92] | 1340 nM | 5.7 nM |
| CCOc1nc2cccc(C)c2c(=O)n1-c1ccc(C[C@H](NC(=O)c2c(Cl)cccc2Cl)C(=O)O)cc1 [compound 94] | 1150 nM | 6 nM |
| COc1ccc2c(c1)N(C)C(=O)N(c1ccc(C[C@H](NC(=O)c3c(Cl)cccc3Cl)C(=O)O)cc1)S2(=O)=O [compound 99] | 12 nM | 2 nM |
| CN1C(=O)N(c2ccc(C[C@H](NC(=O)c3c(Cl)cccc3Cl)C(=O)O)cc2)S(=O)(=O)c2ccc(C(F)(F)F)cc21 [compound 100] | 11 nM | 2.4 nM |
| COCC(=O)Nc1ccc2c(c1)c(=O)n(-c1ccc(C[C@H](NC(=O)c3c(Cl)cccc3Cl)C(=O)O)cc1)c(=O)n2C [compound 105] | 14 nM | 0.8 nM |
| Cn1c(=O)n(-c2ccc(C[C@H](NC(=O)c3c(Cl)cccc3Cl)C(=O)O)cc2)c(=O)c2cc(NC(=O)C(C)(C)C)ccc21 [compound 106] | 44 nM | 2.8 nM |
| CCN(C)c1ccc2c(c1)c(=O)n(-c1ccc(C[C@H](NC(=O)c3c(Cl)cccc3Cl)C(=O)O)cc1)c(=O)n2C [compound 109] | 56 nM | 4.3 nM |
| Cn1c(=O)n(-c2ccc(C[C@H](NC(=O)c3c(Cl)cccc3Cl)C(=O)O)cc2)c(=O)c2cc(N3CCCC3)ccc21 [compound 110] | 55 nM | 4.1 nM |
| O=C(N[C@@H](Cc1ccc(-n2c(=O)c3ccccc3n(Cc3ccc(Cl)c(Cl)c3)c2=O)cc1)C(=O)O)c1c(Cl)cccc1Cl [compound 115] | 760 nM | 36 nM |
| O=C(N[C@@H](Cc1ccc(-n2c(=O)c3ccccc3n(Cc3ccc(Cl)cc3Cl)c2=O)cc1)C(=O)O)c1c(Cl)cccc1Cl [compound 116] | 450 nM | 35 nM |

Reference: patent US7605165B2, “Phenylalanine derivatives” (Ajinomoto Co., Inc., priority 2002, dated 2009)
